Measurements taken from US20230096528A1, “Pharmaceutical Composition for Treatment or Prevention of Multiple Inflammatory disorders” (priority 2019, published 2023).

Test system: diet-induced (DIO) mice
Assay: Body weight study in diet-induced (DIO) mice (Example 9)
Assay type: in vivo, C57BL/6NTac mice
Conditions: gavage BID (DA 92.4 mg/kg, CQL 50 mg/kg)
Experimental: This example provides results of a study of DA plus another compound (CQL) on body weight in diet-induced (DIO) mice. Adult C57BL/6NTac mice were fed with a high fat diet (60%). […] The study period was for 56 days+2-3 days testing period afterward. Body weight change measure 3× per week, food and water consumption on days 0, 12, 28, 42 and 56. Metabolic biomarkers were measured on days 28 and 56. Cytokine analysis on Days 28 and 56. Serum levels of GLP-1, GLP-2, and CCK at 1 h after dosing on Days 1 and 56, and at 2 h after dosing on Day 7 (dosing (>6 h fasting prior to dosing until after blood collection); and serum level of PPY on Day 56.

SMILES: Oc1c(I)cc(Cl)c2cccnc12 [CQL]
- Serum HbA1c level at Day 28: significantly reduced
- Serum HbA1c level at Day 56: considerably increased
- Daily water intake at Day 28 (vs vehicle): significantly decreased
